In article PMC8161026, “Synthesis and Anticancer Activity Evaluation of 5-[2-Chloro-3-(4-nitrophenyl)-2-propenylidene]-4-thiazolidinones” (Molecules, 2021):
Where two headings read alike, the source gives them in different places.

Columns and labels:
[1] = test system: HCC-2998; assay: NCI DTP 60 cell line screen, SRB; conditions: for TGI: HCC-2998 (Colon Cancer), 48 h, SRB; for GI50 / CC50: Homo sapiens, HCC 2998, 48 h; for CC50: read-out: LC50
[2] = test system: NCI-H226; assay: NCI DTP 60 cell line screen, SRB; conditions: for GI50 / CC50: Homo sapiens, NCI-H226, 48 h; for CC50: read-out: LC50; for TGI: NCI-H226 (Non-Small Cell Lung Cancer), 48 h, SRB
[3] = test system: RXF 393; assay: cells; conditions: Homo sapiens, RXF 393, 48 h; for CC50: read-out: LC50
[4] = test system: DU-145; conditions: DU-145 (Prostate Cancer), 48 h, SRB
[5] = test system: 60 tumor cell lines; assay: NCI60 full panel MG_MID; conditions: for GI50 / CC50: Homo sapiens; for CC50: read-out: 60 lines MG_MID, LC50; for 60 lines MG_MID, TGI: mean over all cell lines
Procedure: At the first stage of biological activity study, the antitumor activity screening of the selected compounds 2b, 2c, 2f, 2h, and 2j was performed according to the NCI DTP (USA) standard protocol at the concentrations ranging from 10^−4 to 10^−8 M toward 60 tumor cell lines. The percentage of growth was evaluated spectrophotometrically versus controls not treated with test agents after 48 h exposure and using SRB protein assay to estimate cell viability or growth. Dose–response parameters were calculated for each cell line: GI50—molar concentration of the compound that inhibits 50% net cell growth; TGI—molar concentration of the compound leading to the total inhibition; and LC50—molar concentration of the compound leading to 50% net cell death. Furthermore, mean graph midpoints (MG_MID) were calculated for each of the parameters, giving an average activity parameter over all cell lines for the tested compound. For the MG_MID calculation, insensitive cell lines were included with the highest concentration tested.
Primary anticancer assay was performed on a panel of approximately sixty human tumor cell lines derived from nine neoplastic diseases, in accordance with the protocol of the Drug Evaluation Branch, National Cancer Institute, Bethesda. Tested compounds were added to the culture at a single concentration (10^−5 M) and the cultures were incubated for 48 h. End point determinations were made with a protein binding dye, sulforhodamine B (SRB). […] The percentage growth was evaluated spectrophotometrically versus controls not treated with test agents.
Dose–response parameters (GI50, TGI, LC50) were calculated for each compound. […] The drug concentration resulting in total growth inhibition (TGI) was calculated from Ti = Tz. The LC50 (concentration of drug resulting in a 50% reduction in the measured protein at the end of the drug treatment as compared to that at the beginning) indicating a net loss of cells following treatment was calculated from [(Ti − Tz)/Tz] × 100 = −50 (2). Values were calculated for each of these parameters if the level of activity was reached; however, if the effect was not reached or was excessive, the value for that parameter was expressed as more or less than the maximum or minimum concentration tested.

[6] = test system: MDA-MB-468; assay: NCI DTP 60 cell line screen, SRB
[7] = test system: RXF 393; conditions: RXF 393 (Renal Cancer), 48 h, SRB
[8] = test system: RPMI-8226; conditions: for TI (Therapeutic Index): GI50 (normal blood lymphocyte)/GI50 (RPMI-8226); for TGI: RPMI-8226 (Leukemia), 48 h, SRB
[9] = test system: breast cancer lines MCF-7 and MDA-MB-231; assay: MTT cell viability assay, both breast cancer lines; type: cell-based; conditions: Homo sapiens; MCF-7 and MDA-MB-231, MTT; read-out: GI50 level
Procedure: In the second stage of the research, Ciminalum-thiazolidinone hybrids were investigated for antitumor activity on the lines of gastric cancer (AGS), human colon cancer (DLD-1), and breast cancers (MCF-7 and MDA-MB-231). The study was performed in the MTT assay according to the method described previously. The studied cancer line was sensitive to the action of the studied compounds that inhibited its growth in micromolar ranges of GI50. The hit compounds that inhibited the growth of all four cancer lines with the lowest GI50 values were [5-[2-chloro-3-(4-nitrophenyl)prop-2-enylidene]-rhodanines 2c, 2d, 2h, and 2i (Table 4).

[10] = read-out: 60 lines MG_MID, GI50

| SMILES | TGI [1] | GI50 [1] | CC50 [1] | GI50 [2] | CC50 [2] | TGI [2] | GI50 [3] | CC50 [3] | TGI [4] | GI50 [5, 10] | CC50 [5] | 60 lines MG_MID, TGI [5] | GI50 ([6]; Homo sapiens, MDA-MB-468, 48 h) | CC50 ([6]; Homo sapiens, MDA-MB-468, 48 h, read-out: LC50) | TGI ([6]; MDA-MB-468 (Breast Cancer), 48 h, SRB) | TGI [7] | TI (Therapeutic Index) [8] | TGI [8] | GI50 ([5]; read-out: GI50 concentration range) | GI50 [9] |
| --- | --- | --- | --- | --- | --- | --- | --- | --- | --- | --- | --- | --- | --- | --- | --- | --- | --- | --- | --- | --- |
| O=C(O)C(Cc1ccccc1)N1C(=O)/C(=C/C(Cl)=C/c2ccc([N+](=O)[O-])cc2)SC1=S (stereo not drawn) [Compound 2j, 2-{5-[(Z,2Z)-2-Chloro-3-(4-nitrophenyl)-2-propenylidene]-4-oxo-2-thioxothiazolidin-3-yl}-3-phenylpropanoic acid] | 3.50 µM | 1.96 µM | 6.27 µM | 1.58 µM | 6.76 µM | 3.27 µM | 1.54 µM | 5.93 µM | 4.56 µM | 4.09 µM | 73.9 µM | 40.6 µM | 1.39 µM | 7.71 µM | 3.28 µM | 3.02 µM | 15.21 | > 100 µM |  |  |
| O=C(O)CCN1C(=O)/C(=C/C(Cl)=C/c2ccc([N+](=O)[O-])cc2)SC1=S [Compound 2h, 3-{5-[(Z,2Z)-2-Chloro-3-(4-nitrophenyl)-2-propenylidene]-4-oxo-2-thioxothiazolidin-3-yl}propanoic acid] |  |  |  |  |  |  | 0.105 µM | 1.73 µM | 3.48 µM | 1.57 µM | 65 µM | 13.3 µM |  |  |  | 0.341 µM | 395.22 | 1.30 µM | 0.01 to 0.02 µM | 0.95 to 1.74 µM |
| O=C1NC(=S)S/C1=C\C(Cl)=C\c1ccc([N+](=O)[O-])cc1 [Compound 2b, 5-[(Z,2Z)-2-Chloro-3-(4-nitrophenyl)-2-propenylidene]-2-thioxo-4-thiazolidinone] | 11.7 µM | 5.43 µM | 25 µM | 6.28 µM | > 50 µM | 20.0 µM |  |  | 14.2 µM | 4.79 µM | 43.5 µM | 20.3 µM |  |  |  |  |  | 20.6 µM |  |  |
| O=C1/C(=C/C(Cl)=C/c2ccc([N+](=O)[O-])cc2)SC(=S)N1/N=C\C(Cl)=C\c1ccc([N+](=O)[O-])cc1 [Compound 2c, 5-[(Z,2Z)-2-Chloro-3-(4-nitrophenyl)-2-propenylidene]-3-[(Z,2Z)-2-chloro-3-(4-nitrophenyl)-2-propenylideneamino]-2-thioxo-4-thiazolidinone] |  |  |  | 12 µM | 84.2 µM | 31.8 µM |  |  | 52.8 µM | 18 µM | 81.7 µM | 43.1 µM |  |  |  |  |  | 6.32 µM |  |  |
| O=C1/C(=C/C(Cl)=C/c2ccc([N+](=O)[O-])cc2)SC(=S)N1c1ccc(O)cc1 [Compound 2f, 5-[(Z,2Z)-2-Chloro-3-(4-nitrophenyl)-2-propenylidene]-3-(4-hydroxyphenyl)-2-thioxo-4-thiazolidinone] |  |  |  |  |  |  |  |  | 5.81 µM | 2.8 µM | 80.8 µM | 32.3 µM |  |  |  |  | >10,000 | 0.264 µM |  |  |
